According to a compilation of properties of binary mixtures (doi:10.1524/zpch.2013.0326):

Assay: xn = mol fraction of the nth substance listed
Conditions: 101 kPa

c1ccncc1 + CCCCCCCC[n+]1ccc2ccccc2c1.O=S(=O)([N-]S(=O)(=O)C(F)(F)F)C(F)(F)F
x1 = 1
Conditions	viscosity [mPa·s]
218.15 K	0.67
298.15 K	0.89
308.15 K	0.76
328.15 K	0.59
348.15 K	0.52

c1ccccc1 + CCCCCCCC[n+]1ccc2ccccc2c1.O=S(=O)([N-]S(=O)(=O)C(F)(F)F)C(F)(F)F
x1 = 1
Conditions	viscosity [mPa·s]
298.15 K	0.6
318.15 K	0.47
338.15 K	0.37
348.15 K	0.34

CCCCCCCC[n+]1ccc2ccccc2c1.O=S(=O)([N-]S(=O)(=O)C(F)(F)F)C(F)(F)F + Cc1ccccc1
viscosity [mPa·s]
Conditions	298.15 K	308.15 K	318.15 K	328.15 K	338.15 K	348.15 K
x2 = 0	369	191	108.7	67.9	–	31.62
x2 = 0.0818	–	–	94.1	58.9	39.34	27.64
x2 = 0.1949	200	111.3	–	43.52	29.87	21.41
x2 = 0.2746	143.3	–	50.3	33.2	23.14	16.87
x2 = 0.3638	96.8	58.2	37.73	–	18.51	13.76
x2 = 0.4295	67.4	–	27.64	–	14.19	10.81
x2 = 0.4775	–	–	22.12	15.77	–	9
x2 = 0.4902	–	31.17	21.24	15.26	11.43	8.83
x2 = 0.5467	35.44	23.45	16.48	–	9.23	7.21
x2 = 0.6148	22.18	15.4	–	8.46	6.59	5.28
x2 = 0.7004	12.67	9.25	7.03	–	4.44	3.65
x2 = 0.7634	7.73	5.89	4.64	3.76	3.11	2.62
x2 = 0.8672	3.2	2.62	–	1.88	1.65	1.48

Cc1ccccc1 + CCCCCCCC[n+]1ccc2ccccc2c1.O=S(=O)([N-]S(=O)(=O)C(F)(F)F)C(F)(F)F
x1 = 1
Conditions	viscosity [mPa·s]
298.15 K	0.56
318.15 K	0.45
328.15 K	0.4
338.15 K	0.37
348.15 K	0.33

CCCCCCCC[n+]1ccc2ccccc2c1.O=S(=O)([N-]S(=O)(=O)C(F)(F)F)C(F)(F)F + c1ccccc1
viscosity [mPa·s]
Conditions	298.15 K	308.15 K	318.15 K	328.15 K	338.15 K	348.15 K
x2 = 0	–	191	–	67.9	44.8	31.62
x2 = 0.0912	301	158.8	92	57.6	38.53	27.1
x2 = 0.1505	249	134.2	79.2	–	34.07	24.21
x2 = 0.295	150.9	85.5	52.8	34.86	24.3	17.61
x2 = 0.332	133.1	76.4	–	–	22.32	–
x2 = 0.4679	–	–	26.93	18.76	13.7	10.41
x2 = 0.5663	37.49	24.56	–	12.25	9.21	7.15
x2 = 0.654	21.25	14.55	10.5	7.91	6.15	–
x2 = 0.673	–	7.96	6.05	–	–	3.15
x2 = 0.7443	–	4.55	3.6	2.94	2.46	2.11
x2 = 0.8143	2.78	2.28	1.92	1.66	–	1.34
x2 = 0.8961	0.96	0.83	0.74	0.65	0.59	–

c1ccsc1 + CCCCCCCC[n+]1ccc2ccccc2c1.O=S(=O)([N-]S(=O)(=O)C(F)(F)F)C(F)(F)F
x1 = 1
Conditions	viscosity [mPa·s]
298.15 K	0.62
308.15 K	0.54
318.15 K	0.48
328.15 K	0.42
338.15 K	0.38

CCCCCCCC[n+]1ccc2ccccc2c1.O=S(=O)([N-]S(=O)(=O)C(F)(F)F)C(F)(F)F + c1ccsc1
viscosity [mPa·s]
Conditions	298.15 K	308.15 K	318.15 K	328.15 K	338.15 K	348.15 K
x2 = 0	369	191	–	67.9	44.8	31.62
x2 = 0.0964	300	–	–	57.9	38.71	27.2
x2 = 0.1907	215	118	70.9	45.7	33.3	22.4
x2 = 0.2739	155.2	88.3	–	36.23	25.31	18.35
x2 = 0.3572	112.1	66.1	42.17	28.66	–	15.04
x2 = 0.4456	72.5	44.61	29.44	20.52	14.97	–
x2 = 0.542	–	–	19.21	13.96	10.53	8.22
x2 = 0.6385	23.26	–	11.79	8.96	6.98	5.57
x2 = 0.7244	12.82	9.45	7.2	5.63	4.53	3.73
x2 = 0.821	–	–	4.88	4.03	3.4	2.91
x2 = 0.8627	5.27	4.26	3.53	2.98	2.55	2.22
x2 = 0.9065	3.34	–	–	2.04	1.78	1.57
x2 = 0.935	2.38	2.01	1.73	1.51	1.34	1.25

CCCCCCCC[n+]1ccc2ccccc2c1.O=S(=O)([N-]S(=O)(=O)C(F)(F)F)C(F)(F)F + c1ccncc1
viscosity [mPa·s]
Conditions	298.15 K	308.15 K	328.15 K	338.15 K	348.15 K
x2 = 0	369	191	–	44.8	31.62
x2 = 0.0945	292	–	57	–	–
x2 = 0.1869	205	113.6	44.5	30.56	21.19
x2 = 0.2762	141.5	81.4	34.07	23.96	17.53
x2 = 0.3675	89.1	53.9	24.08	17.44	13.12
x2 = 0.4584	56.5	35.87	17.33	12.94	10.01
x2 = 0.5383	42.09	27.64	14.12	–	8.48
x2 = 0.637	19.55	13.92	8.02	6.34	5.11
x2 = 0.7274	10.36	7.76	–	3.95	3.3
x2 = 0.8199	6.68	–	3.64	–	2.67
x2 = 0.9064	3.11	2.6	1.92	1.68	1.49
